B1: mG#102: recombinant mouse second Rab protein, SEQ ID NO: 4 (protein)
chain: MQTPHKEHLYKLLVIGDLGVGKTSIIKRYVHQNFSSHYRATIGVDFALKVLHWDPETVVRLQLWDIAGQERFGNMTRVYYREAMGAFIVFDVTRPATFEAVAKWKNDLDSKLXLPNGKPVSVVLLANKCDQGKDVLMNNGLKMDQFCKEHGFVGWFETSAKENINIDEASRCLVKHILANECDLXESIEPDXVKPHLTSXKVXSCSGCAKS
modifications: Mus musculus or Homo sapiens; (113) Thr or Ser.
B2: mG#101: recombinant mouse first Rab protein, SEQ ID NO: 1 (protein)
chain: MLLGDSGVGKTCFLIQFKDGAFLSGTFIATVGIDFRNKVVTVDGXRVKLQIWDTAGQERFRSVTHAYYRDAQALLLLYDITNKSSFDNIRAWLTEIHEYAQRDVVIMLLGNKADXSSERVIRSEDGETLAREYGVPFXETSAKTGMNVELAFLAIAKELKYRAGXQXDEPSFQIRDYVESQKKRSSCCSFV
modifications: Mus musculus or Homo sapiens; (45) Ala or Val.

Experiments:
[1] = test system: interaction between mG#102 and mA#10283; experiment: Two-hybrid recombinant yeast #102 strain growth in histidine defective medium; format: cell-based, S. cerevisiae; conditions: for specific suppression of #102 strain growth (in words): compared with VT strain; for Suppression (% control) of growth of yeast strain, #102 strain: turbidity 590 nm, 18-20 hr
Method: (§1) Two expression vectors respectively incorporating mG#102 in pAS2-1 vector and mA#10283 in pACT2 vector were introduced into S. cerevisiae CG1945 strain to give a recombinant yeast #102 strain (see Example 3). As a control, recombinant yeast VT strain into which plasmid for positive control (pVA3-1, pTD1-1) of MATCHMAKER Two-Hybrid System 2 had been introduced was prepared. The culture media of #102 strain and VT strain that reached confluent by shake culture overnight at 30° C. in an SD medium supplemented with histidine were diluted 200-fold with a fresh histidine defective SD medium (containing 1 mM 3-AT) and dispensed to a 96 well plate by 0.09 ml/well. A PBS solution containing a compound whose effect is desired to be examined was added to each well, PBS was added to the well of 100% control, and 1M 3-AT-containing PBS solution was added to the well of 0% control respectively in a volume of 0.01 ml/well and mixed by a plate shaker MicroMixer E-36 (manufactured by TAITEC). Then, after static culture at 30° C. for 18-20 hr, culture media were suspended in a plate shaker, and turbidity (absorbance at 590 nm) was measured with a 96 well plate spectrophotometer Multiskan BICHROMATIC (manufactured by Labsystems) The data of the turbidity measured were evaluated on conversion to % control based on the turbidity data of 100% control and 0% control. When a common effect appears between the #102 strain and the VT strain, it was considered a nonspecific effect on the two-hybrid system rather than an effect on the interaction between mG#102 and mA#10283.
(§2) Using the system shown in Example 7, 0.09 ml each of #102 strain yeast or VT strain yeast (control) was placed in each well of a 96 well plate, and a PBS solution containing a particular compound which is unknown as to its effect on the interaction between mG#102 and mA#10283 was added by 0.01 ml, which was followed by culture at 30° C. for 18-20 hr. Then, the culture medium was suspended in a plate shaker and the turbidity (absorbance at 590 nm) was measured with a 96 well plate absorbance meter. The turbidity of the well to which PBS solution without the compound was added was taken as 100% control and the turbidity of the well to which PBS solution containing 3-AT (final concentration 100 mM) instead of the compound was added was taken as 0% control, and the effect of the compound was evaluated by conversion to percentage.

[2] = test system: interaction between mG#102 and mA#10283; experiment: as above; format: cell-based, S. cerevisiae; conditions: histidine defective SD medium
VT strain [3] = experiment: Two-hybrid positive control recombinant yeast VT strain growth (nonspecific effect control); format: cell-based, S. cerevisiae
VT strain [4] = experiment: as above; format: cell-based, S. cerevisiae; conditions: turbidity 590 nm, 18-20 hr
Method: as §1, §2

[5] = test system: mouse bone marrow-derived mast cells (BMMC); experiment: IgE/DNP-HSA antigen-induced degranulation of BMMC (hexosaminidase release); format: cell-based; conditions: for Suppression (% control) of degranulation of mast cell: fluorescence of control group without compound = 100%
Method: BMMC prepared by the method shown in Example 1 was suspended in 10% FBS-containing RPMI at a concentration of 3×10^6/ml. To this BMMC was added a mouse monoclonal anti-DNP IgE antibody (manufactured by YAMASA) at 3 μg/ml, and the mixture was stood at room temperature for 30 min. Then, BMMC treated with an IgE antibody was washed with buffer A (133 mM NaCl, 5 mM KCl, 0.9 mM NaH2PO4, 8 mM glucose, 1 mg/ml BSA, 0.01 mM CaCl2, 20 mM HEPES, pH 7.4) and suspended in buffer A containing 1 mM CaCl2 at a concentration of 3×10^6/ml. This BMMC suspension (0.1 ml/well) was added in a 96 well multiplate and a solution of the compound to be examined (0.05 ml/well) and a DNP-HSA (manufactured by Sigma) solution (40 ng/ml, 0.05 ml/well) as an antigen were added. After standing at room temperature for 30 min, the mixture was centrifuged at 1000 rpm for 5 min and the supernatant was recovered for the 96 well multiplate by 0.05 ml/well. To this supernatant was added a 4-methylumbelliferyl-2-acetamide-2-deoxy-β-D-glucopyranoside (manufactured by Funakoshi Co., Ltd., substrate of hexosaminidase) solution (1 mM; in 0.2 M citrate buffer (pH 4.5)) at 0.05 ml/well. After standing at 37° C. for 90 min, 1M Tris solution (0.15 ml) was added to stop the reaction, and the amount of fluorescence in each well was measured by fluoroscan (manufactured by Labo Systems). The suppressive effect of the compound on the degranulation of BMMC was calculated based on the amount of fluorescence in the control group free of addition of the compound as 100%. As a control compound, tranilast was used.

BMMC = BMMC digitonin degranulation system (histamine release); format: cell-based, mouse; conditions: protein added to digitonin-permeabilised BMMC, CaCl2 stimulation, histamine RIA
Method: The recombinant protein was added to a BMMC digitonin degranulation system to examine the effect. BMMC was washed twice with a buffer having the following composition to give a suspension at 2×10^6 cells/ml and dispensed to a 96-well U-bottom plate by 0.05 ml/well. Then, mG#101 or mG#102 recombinant protein (0.05 ml/well) was added. Furthermore, 4.5 μM digitonin was added by 0.05 ml/well and the plate was stood at room temperature for 5 min. Thereafter 4 mM CaCl2 was added by 0.05 ml/well and the plate was stood at room temperature for 10 min. After standing, the concentration of histamine liberated in the supernatant was determined by a histamine RIA kit (Eiken Chemical Co., Ltd.). buffer composition:
The recombinant protein was added to the digitonin degranulation system (see Example 5) and the effect was examined.

[6] = compound concentration 0.3 μg/ml
[7] = compound concentration 10 μg/ml
[8] = compound concentration 30 μg/ml

| Molecule | specific suppression of #102 strain growth (in words) [1] | Suppression (% control) of growth of yeast strain, #102 strain ([1]; compound concentration 1 μg/ml) [% control] | Suppression (% control) of growth of yeast strain, #102 strain ([1]; compound concentration 3 μg/ml) [% control] | Suppression (% control) of growth of yeast strain, #102 strain [1, 7] [% control] | Suppression (% control) of growth of yeast strain, VT strain (VT strain [4]; compound concentration 1 μg/ml) [% control] | Suppression (% control) of growth of yeast strain, VT strain (VT strain [4]; compound concentration 3 μg/ml) [% control] | Suppression (% control) of growth of yeast strain, VT strain (VT strain [4]; [7]) [% control] | Suppression (% control) of degranulation of mast cell ([5]; concentration 1 μg/ml) [% control] | Suppression (% control) of degranulation of mast cell ([5]; concentration 3 μg/ml) [% control] | Suppression (% control) of degranulation of mast cell ([5]; concentration 10 μg/ml) [% control] | Suppression (% control) of degranulation of mast cell ([5]; concentration 30 μg/ml) [% control] | Suppression (% control) of degranulation of mast cell ([5]; concentration 100 μg/ml) [% control] | effect of recombinant protein on degranulation (in words) (BMMC) | further results |
| --- | --- | --- | --- | --- | --- | --- | --- | --- | --- | --- | --- | --- | --- | --- |
| Nc1nc[nH]n1 [Formula 3-AT, 3-amino-1,2,4-triazole] |  |  |  |  |  |  |  |  |  |  |  |  |  | growth of recombinant yeast strain with 100 mM 3-AT (in words) ([1]; #102 strain, 100 mM 3-AT): neither recombinant yeast strain could grow; concentration of 3-AT wherein the recombinant yeast strain grows in a reporter gene (histidine synthase)-dependent manner [2]: 1 to 10 mM; growth of recombinant yeast strain with 100 mM 3-AT (in words) (VT strain [3]; 100 mM 3-AT): neither recombinant yeast strain could grow; concentration of 3-AT wherein the recombinant yeast strain grows in a reporter gene (histidine synthase)-dependent manner (VT strain [3]; histidine defective SD medium): 1 to 10 mM |
| CC(C)=NNc1nc(-c2ccc(-c3ccccc3)cc2)cs1 [Formula [III], acetone-4-(4-phenyl)phenyl-1,3-thiazol-2-yl-hydrazone] | specifically suppressed #1022 strain in a dose-dependent manner | 57 | 4 | 1 | 85 | 77 | 63 | 102 | 87 | 39 | 20 | 6 |  | Suppression (% control) of growth of yeast strain, #102 strain [1, 6]: 99 % control; Suppression (% control) of growth of yeast strain, VT strain (VT strain [4]; [6]): 99 % control; suppression of degranulation of mast cells (in words) [5]: suppressed degranulation of mast cells in a dose-dependent manner |
| O=C(N/N=C/c1ccc([N+](=O)[O-])o1)c1ccccc1Br [Formula [IV], 5-nitro-2-furaldehyde-2-brombenzoylhydrazne] | specifically suppressed #1022 strain in a dose-dependent manner | 99 | 99 | 36 | 102 | 102 | 98 |  |  |  |  |  |  | Suppression (% control) of growth of yeast strain, #102 strain [1, 8]: −2 % control; Suppression (% control) of growth of yeast strain, VT strain (VT strain [4]; [8]): 63 % control |
| COc1ccc(/C=C/C(=O)Nc2ccccc2C(=O)O)cc1OC [tranilast, reference compound] |  |  |  |  |  |  |  | 96 | 90 | 78 | 52 | 22 |  |  |
| B1 |  |  |  |  |  |  |  |  |  |  |  |  | inhibited degranulation in a concentration dependent manner |  |
| B2 |  |  |  |  |  |  |  |  |  |  |  |  | inhibited degranulation in a concentration dependent manner |  |

Reference: US20030143633A1, “Factors participating in degranulation of mast cells, dnas encoding the same, method of screening of these factors and the inhibitors” (priority 2000, published 2003)
